The target in the assay is T1, Neutrophil elastase (Homo sapiens, UniProt P08246).
T1 sequence (P08246 whole entry): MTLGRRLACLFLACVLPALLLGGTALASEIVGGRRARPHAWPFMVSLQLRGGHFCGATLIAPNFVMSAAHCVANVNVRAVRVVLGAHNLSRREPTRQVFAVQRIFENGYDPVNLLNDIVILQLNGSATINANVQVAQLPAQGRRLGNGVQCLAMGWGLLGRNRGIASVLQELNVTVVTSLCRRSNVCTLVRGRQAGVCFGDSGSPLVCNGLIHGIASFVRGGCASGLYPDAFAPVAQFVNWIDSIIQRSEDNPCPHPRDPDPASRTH
Briefly: Elastase Activity Assay. From the text:
The elastase inhibitor activity was examined using N-succinyl-Ala-Ala-Ala-pnitroanilide (STANA) as the substrate and by the measuring of the release of p-nitroaniline at 410 nm [James et al., Biochemistry, 35:9090-9096].

Usually IC50 stands for the concentration at which inhibition is half-maximal. Read a low IC50 as inhibition by little substance. Turning to `C[C@H]1[C@H](C)CC[C@]2(C(=O)O)CC[C@]3(C)C(=CC[C@@H]4[C@@]5(C)CC[C@H](O)C(C)(C)[C@@H]5CC[C@]43C)[C@H]12` [3beta-hydroxyurs-12-en-28-oic acid], half-maximal inhibition (IC50) required 416 nM. This lies in the sub-micromolar range.
The molecule `CN(CCN(Cc1cc(=O)oc2c(O)c(O)ccc12)c1ccccc1)c1ccccc1` [4,4'-(Ethane-1,2-diylbis(phenylazanediyl))bis(methylene)bis(6,7-dihydroxy-2H-chromen-2-one) (7)] returned an IC50 of 125 nM.
`CN(CCN(Cc1cc(=O)oc2cc(O)c(O)cc12)c1ccccc1)c1ccccc1` [4,4'-(Ethane-1,2-diylbis(phenylazanediyl))bis(methylene)bis(7,8-dihydroxy-2H-chromen-2-one) (3)] registered an IC50 of 127 nM.

For the origin of these results see BindingDB's records for doi:10.3109/14756366.2012.692086 (Giresun University, 2013).
